Publication PMC6694155, “PTPσ inhibitors promote hematopoietic stem cell regeneration” (Nature Communications, 2019)
Several values for one entry are separate records, joined by “and”; a condition that tells them apart may be missing. Equal values may be shown once.

How the values were obtained:
[1] = biological target: T1, SHP-2 (Protein-Tyrosine Phosphatase 2C) (Homo sapiens, UniProt Q06124); test: PhosphataseProfiler screen: SHP-2; format: biochemical; conditions: replicates
T1 construct: purchased Eurofins Pharma Discovery Services UK
Method: (§1) Compound DJ001 was evaluated in a PhosphataseProfiler™ screen at 10 μM and 1 μM (2.7 μg/mL and 0.27 μg/mL) concentrations at Eurofins Pharma Discovery Services UK (Study number UK022-0004033) against a panel of 21 Phosphatases. In each experiment, the respective reference antagonist/agonist was tested directly with DJ001 and the data were compared with historical values determined at Eurofins. DJ001 compound inhibition was calculated as percentage inhibition of the enzymatic activity compared with control.

BM KSL cells = test: Cytokine analysis in vitro (BM KSL cell culture supernatants); format: cell-based, mouse; parameters: PTN: unit not given beside the values; IL-5 / IL-6 / IL-9 / IL-10 / IL-12(p40) / IL-12(p70) / IL-13 / IL-17 / IP-10 / CXCL12 / EGF / DKK / G-CSF / Eotaxin / GM-CSF / KC / MCP-1 / MIP-1a / M-CSF / MIP-2 / MIG / RANTES / VEGF / TNF-a / IFN-g / IL-1a / IL-1b / IL-2 / IL-4 / IL-3: unit not given here; conditions: for IFN-g / IL-1a / IL-1b / IL-2 / IL-3 / IL-4 / IL-5 / IL-6 / IL-9 / IL-10 / IL-12(p40) / IL-12(p70) / IL-13 / IL-17 / IP-10: Supplementary Figure 6a; for CXCL12 / DKK / EGF / Eotaxin / G-CSF / GM-CSF / KC / M-CSF / MCP-1 / MIG / MIP-1a / MIP-2 / PTN / RANTES / TNF-a / VEGF: Supplementary Figure 6b
Method: For in vitro cytokine measurements, 3.5 × 10^4 BM KSL cells were irradiated with 300 cGy and cultured in TSF media with and without 1 μg/mL DJ001. Non-irradiated KSL cells were cultured in TSF media with and without 1 μg/mL DJ001. At 12 h of culture, culture supernatants were collected for analysis. For in vivo cytokine measurements, adult C57BL/6 mice were irradiated with 750 cGy TBI and then treated with 5 mg/kg of DJ001 or vehicle, subcutaneously, from day + 1 to day + 5. Non-irradiated mice received the identical regimen of 5 mg/kg DJ001 or vehicle for 5 days. Mice were killed and BM cells were collected into IMDM. Cells were pelleted and the BM supernatant was collected and sent to the UCLA Immune Assessment Core for cytokine analysis. All samples were tested on a mouse 32-plex Cytokine/Chemokine panel platform from EMD Milipore using Luminex’s xMAP® immunoassay technology (Luminex, Inc.). In addition, the following cytokine levels were assessed by solid-phase ELISA assay according to the manufacturer’s description: CXCL12 (R&D Systems), SCF (R&D Systems), Thrombopoietin (TPO) (R&D Systems), PTN (Biomatik), DKK1 (R&D Systems), and EGF (R&D Systems).

RAC1-GTP in BM KSL cells = test: RAC1-GTP intracellular flow cytometry of BM KSL cells; format: cell-based, mouse; parameters: Figure 3c: RAC1-GTP in BM KSL cells: unit not given here; conditions: for Figure 3c: RAC1-GTP in BM KSL cells: individual replicates
Method: Intracellular flow cytometric analysis was performed on irradiated (300 cGy) or non-irradiated, sorted KSL cells after treatment with 1 μg/mL DJ001 or control (equal volumes of DMSO) for 24 h. At 24 h after irradiation, cells were fixed with 4% PFA for 10 min, followed by permeabilization using 0.25% saponin in PBS. Cells were washed again and stained with antibody at the recommended concentrations for 30 min at RT. Intracellular antibodies and phospho-flow antibodies used were as follows: FITC-conjugated anti-BCL-XL (Abcam, #26148, 1:100), active RAC1-GTP antibody (NewEast Biosciences, #26903, 1:100) and anti-PAK1 (phospho S144) + PAK2 (phospho S141) + PAK3 (phospho S154) antibody (Abcam, #40795, 1:100), and FITC-conjugated goat anti-rabbit IgG H&L (Abcam, #97050, 1:200).

[2] = biological target: T2, TMDP (Dual Specificity Phosphatase 13) (Homo sapiens, UniProt Q9UII6); test: PhosphataseProfiler screen: TMDP; format: biochemical; conditions: replicates
T2 construct: purchased Eurofins Pharma Discovery Services UK
Method: as §1

T1 sequence (Q06124 whole entry, species assumed): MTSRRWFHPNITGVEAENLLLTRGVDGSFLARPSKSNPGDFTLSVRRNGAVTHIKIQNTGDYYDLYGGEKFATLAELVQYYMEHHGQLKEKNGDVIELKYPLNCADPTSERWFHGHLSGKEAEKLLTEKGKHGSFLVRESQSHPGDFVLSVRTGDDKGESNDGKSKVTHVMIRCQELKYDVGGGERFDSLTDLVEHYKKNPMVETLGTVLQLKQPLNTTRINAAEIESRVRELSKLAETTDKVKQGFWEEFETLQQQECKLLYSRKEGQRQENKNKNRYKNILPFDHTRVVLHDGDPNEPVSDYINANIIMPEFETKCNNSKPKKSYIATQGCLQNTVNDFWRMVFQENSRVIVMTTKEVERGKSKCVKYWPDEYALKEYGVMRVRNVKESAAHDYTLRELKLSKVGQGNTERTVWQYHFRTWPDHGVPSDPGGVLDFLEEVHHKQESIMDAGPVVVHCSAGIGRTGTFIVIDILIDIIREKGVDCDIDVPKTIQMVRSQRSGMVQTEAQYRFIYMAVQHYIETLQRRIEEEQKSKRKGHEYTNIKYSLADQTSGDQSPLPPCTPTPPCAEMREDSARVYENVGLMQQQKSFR
T2 sequence (Q9UII6 whole entry, species assumed): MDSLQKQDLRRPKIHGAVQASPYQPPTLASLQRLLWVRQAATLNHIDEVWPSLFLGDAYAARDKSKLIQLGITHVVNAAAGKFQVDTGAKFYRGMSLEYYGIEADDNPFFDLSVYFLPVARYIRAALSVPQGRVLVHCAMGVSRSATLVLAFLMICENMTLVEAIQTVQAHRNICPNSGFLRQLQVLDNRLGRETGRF

SMILES: O=C(/C=C\Nc1cccc([N+](=O)[O-])c1)c1ccccc1 [DJ001, (Z)-3-((3-nitrophenyl)amino)-1-phenylprop-2-en-1-one]
- Supplementary Figure 1: SHP-2 activity ([1]; 0.27 μg/mL DJ001): 99 and 96 and 102
- Supplementary Figure 1: SHP-2 activity ([1]; 2.7 μg/mL DJ001): 87 and 90 and 94
- IFN-g (BM KSL cells; 300cGy): 0.77
- IL-1a (BM KSL cells; 300cGy): 2.07 and 2.11
- IL-1b (BM KSL cells; 300cGy): 1.39
- IL-2 (BM KSL cells; 300cGy): 2.9
- IL-3 (BM KSL cells; 300cGy): 1
- IL-4 (BM KSL cells; 300cGy): 0.44
- IL-5 (BM KSL cells; 300cGy): 2.67
- IL-6 (BM KSL cells; 300cGy): 0.77 and 1.04
- IL-9 (BM KSL cells; 300cGy): 36.91
- IL-10 (BM KSL cells; 300cGy): 2.29
- IL-12(p40) (BM KSL cells; 300cGy): 1.77 and 1.44 and 2.31
- IL-12(p70) (BM KSL cells; 300cGy): 3.42
- IL-13 (BM KSL cells; 300cGy): 9.36
- IL-17 (BM KSL cells; 300cGy): 1.92
- IP-10 (BM KSL cells; 300cGy): 2.77
- CXCL12 (BM KSL cells; 300cGy): 0
- DKK (BM KSL cells; 300cGy): 0
- EGF (BM KSL cells; 300cGy): 0
- Eotaxin (BM KSL cells; 300cGy): 2.69
- G-CSF (BM KSL cells; 300cGy): 0.01
- GM-CSF (BM KSL cells; 300cGy): 5.03
- KC (BM KSL cells; 300cGy): 1.04
- M-CSF (BM KSL cells; 300cGy): 1.85 and 2.24
- MCP-1 (BM KSL cells; 300cGy): 4.52
- MIG (BM KSL cells; 300cGy): 3.11
- MIP-1a (BM KSL cells; 300cGy): 5.42 and 8.81
- MIP-2 (BM KSL cells; 300cGy): 16
- PTN (BM KSL cells; 300cGy): 10.6601 and 9.687 and 10.9496
- RANTES (BM KSL cells; 300cGy): 3.97
- TNF-a (BM KSL cells; 300cGy): 4.73
- VEGF (BM KSL cells; 300cGy): 1.18
- LIX levels following irradiation (BM KSL cells; BM KSL cells, 12 h after 300 cGy, 1 μg/mL DJ001): decreased LIX levels
- other cytokines in vitro (BM KSL cells; BM KSL cells, 12 h culture, 1 μg/mL DJ001): no effects on any other cytokines
- IFN-g (BM KSL cells; NI (non-irradiated)): 0.77
- IL-1a (BM KSL cells; NI (non-irradiated)): 2.07
- IL-1b (BM KSL cells; NI (non-irradiated)): 1.39
- IL-2 (BM KSL cells; NI (non-irradiated)): 2.9
- IL-3 (BM KSL cells; NI (non-irradiated)): 1
- IL-4 (BM KSL cells; NI (non-irradiated)): 0.44
- IL-5 (BM KSL cells; NI (non-irradiated)): 2.67
- IL-6 (BM KSL cells; NI (non-irradiated)): 0.77 and 1.04
- IL-9 (BM KSL cells; NI (non-irradiated)): 36.91
- IL-10 (BM KSL cells; NI (non-irradiated)): 2.29
- IL-12(p40) (BM KSL cells; NI (non-irradiated)): 1.13 and 2.12 and 1.6
- IL-12(p70) (BM KSL cells; NI (non-irradiated)): 3.42
- IL-13 (BM KSL cells; NI (non-irradiated)): 9.36
- IL-17 (BM KSL cells; NI (non-irradiated)): 1.92
- IP-10 (BM KSL cells; NI (non-irradiated)): 2.77
- CXCL12 (BM KSL cells; NI (non-irradiated)): 0
- DKK (BM KSL cells; NI (non-irradiated)): 0
- EGF (BM KSL cells; NI (non-irradiated)): 0
- Eotaxin (BM KSL cells; NI (non-irradiated)): 2.69
- G-CSF (BM KSL cells; NI (non-irradiated)): 0.01
- GM-CSF (BM KSL cells; NI (non-irradiated)): 5.03
- KC (BM KSL cells; NI (non-irradiated)): 1.04
- M-CSF (BM KSL cells; NI (non-irradiated)): 1.85 and 2.71
- MCP-1 (BM KSL cells; NI (non-irradiated)): 4.52
- MIG (BM KSL cells; NI (non-irradiated)): 3.11
- MIP-1a (BM KSL cells; NI (non-irradiated)): 5.42 and 8.81
- MIP-2 (BM KSL cells; NI (non-irradiated)): 16
- PTN (BM KSL cells; NI (non-irradiated)): 11.0625 and 10.3876 and 11.8896
- RANTES (BM KSL cells; NI (non-irradiated)): 3.97
- TNF-a (BM KSL cells; NI (non-irradiated)): 4.73
- VEGF (BM KSL cells; NI (non-irradiated)): 1.18
- RAC1-GTP levels (RAC1-GTP in BM KSL cells; BM KSL cells from Ptprs+/+ mice): rapid increase in RAC1-GTP levels
- RAC1-GTP levels (RAC1-GTP in BM KSL cells; BM KSL cells from Ptprs−/− mice): no change in RAC1-GTP levels
- Figure 3c: RAC1-GTP in BM KSL cells (RAC1-GTP in BM KSL cells; Ptprs+/+ cells): 42 and 37.6 and 37.8 and 37.4 and 37.3
- Figure 3c: RAC1-GTP in BM KSL cells (RAC1-GTP in BM KSL cells; Ptprs-/- cells): 84.6 and 83.8 and 81.9 and 85.5 and 85.6
- Supplementary Figure 1: TMDP activity ([2]; 2.7 μg/mL DJ001): 101
- Supplementary Figure 1: TMDP activity ([2]; 0.27 g/mL DJ001): 108 and 103 (2×)
